Laboratory results from patent US11026910B2, “α- and γ-truxillic acid derivatives and pharmaceutical compositions thereof” (The Research Foundation for The State University of New York, priority 2012, dated 2021).
Entries after “also recorded” stand apart in the source; their conditions may differ.

Columns and labels:
[1] = test system: dorsal raphe (DR) serotonin (5-HT) neurons; experiment: Patch-clamp electrophysiology in brain slices, glutamate-mediated EPSCs; format: cell-based
Description: Whole-cell-voltage clamp recordings of dorsal raphe (DR) serotonin (5-HT) neurons were performed as previously described. Briefly, DR neurons were visualized using an upright microscope (BX 51 WI, Olympus, Tokyo, Japan) equipped with a differential interference contrast and infrared imaging system. Somatic recordings from DR neurons were obtained with path electrodes ([…]) back-filled with potassium gluconate based internal solution of the following composition: 120 mM potassium gluconate, 10 mM KCl, 10 mM Na2-phosphocreatine, 10 mM HEPES, 1 mM MgCl2, 1 mM EGTA, 2 mM Na2-ATP, 0.25 mM Na-GTP, pH 7.3 (Adjusted with KOH; Osmolarity, 280 to 290 mOsmol/l). All the recordings were conducted in the presence of GABAA receptor antagonist picrotoxin (100 μM). Excitatory postsynaptic currents (EPSCs) were evoked with a single square stimulus (intensity, 1 to 10 V, duration, 100 to 200 μs) delivered via a glass stimulating electrode. […]
The amplitude of EPSCs was determined by measuring the average current during a 2-ms period at the peak of each EPSC and subtracted from the baseline current determined during a 5-ms time window before the stimulus. All EPSC amplitudes were normalized to the mean baseline amplitude recorded for at least 10 min before drug application. […]

PPARα = biological target: T1, PPARα (Homo sapiens, UniProt Q07869); experiment: PPARα transactivation in HeLa cells; format: cell-based
T1 construct: expressed in transfected cells; host or cells: HeLa
T1 sequence (Q07869 1-468): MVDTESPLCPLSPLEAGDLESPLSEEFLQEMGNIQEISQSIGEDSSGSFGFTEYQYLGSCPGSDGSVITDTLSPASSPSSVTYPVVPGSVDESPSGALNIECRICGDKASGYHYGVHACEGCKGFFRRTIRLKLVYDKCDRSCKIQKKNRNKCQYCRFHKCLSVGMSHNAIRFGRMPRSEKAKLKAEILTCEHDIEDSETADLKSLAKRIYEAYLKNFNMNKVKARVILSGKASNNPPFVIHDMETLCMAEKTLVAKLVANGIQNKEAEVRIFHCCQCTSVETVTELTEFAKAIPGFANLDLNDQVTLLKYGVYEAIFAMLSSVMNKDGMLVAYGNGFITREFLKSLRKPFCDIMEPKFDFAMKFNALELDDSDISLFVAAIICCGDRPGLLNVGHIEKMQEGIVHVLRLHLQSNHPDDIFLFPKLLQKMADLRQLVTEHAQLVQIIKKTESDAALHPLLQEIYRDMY
Description: PPARα and PPARγ transactivation assays were performed in HeLa cells exactly as described (Kaczocha, M. et al. 2012).

male C57Bl6 mice [2] = experiment: Carrageenan-induced paw edema and thermal hyperalgesia; format: in vivo
Description: (§1) We used male C57Bl6 mice (22-30 g, Taconic Farms) for all experiments. The animals were group housed at room temperature and kept on a 12:12 hour light:dark cycle with ad libitum access to water and food. The animals were habituated to the experimental room for one week before testing. All experiments were approved by the Stony Brook University Institutional Animal Care and Use Committee. The experimenter was blinded to the treatment conditions of each animal.
Paw edema was induced by injecting 1% λ-carrageenan (20 μl, in sterile saline) into the plantar surface of the left hind paw and a control solution of saline into the right hind paw using a 27 gauge needle. Paw diameters were measured before carrageenan injection and 4 hours after injection using digital electronic calipers (Fisher) and expressed to the nearest ±0.01 mm. […] The cannabinoid receptor antagonists, rimonabant and SR144528 (3 mg/kg, i.p.), in ethanol:emulphor:saline (1:1:18), were injected 15 min before the FABP inhibitor. Edema is reported as the change in paw diameter at 4 hr over the baseline. Changes in paw diameter of saline-injected contralateral paws were negligible. Thermal hyperalgesia measured the latency to withdraw the paw from a focused beam of radiant heat applied to the plantar surface of the hind paw using a Hargreaves plantar apparatus (Ugo Basile) set at an intensity of 3.0. For each mouse, the average latencies consisted of three trials spaced at least 5 minutes apart. The mice were habituated to the test chamber for 30 min. The cutoff time was set at 30 sec.
(§2) Behavioral data are presented as means±S.E.M. for the vehicle and inhibitor-treated groups, each consisting of at least 6 animals. Statistical significance between vehicle and inhibitor groups was determined using unpaired t-tests or one-way ANOVA followed by Dunnett's post hoc analysis. In all cases, differences of p<0.05 were considered significant.

male C57Bl6 mice [3] = experiment: Formalin test; format: in vivo
Description: as §1
Mice were habituated to the observation chamber (Plexiglas box, 25 cm×25 cm×25 cm) for 30 min prior to formalin injection. The mice subsequently received an injection of formalin (2.5% in saline, 20 μl) into the plantar surface of the right hind paw using a 27 gauge needle. The animals were immediately placed back into the observation, chamber and nocifensive behavior (time spent licking or biting the paw) was recorded for 60 min. The formalin test consists of two phases with the first phase (0-5 min) reflecting nociceptor activation and the second phase (15-45 min) reflecting an inflammatory pain response.
as §2

mice = experiment: Acetic acid-induced writhing; format: in vivo
Description: as §1

agonist properties at CB1 receptors ([1]; concluded from EPSC amplitude, 10 μM): is not a CB1 receptor agonist
activation of PPARα (PPARα; 6 hrs incubation, luciferase reporter): ~2 fold
agonism at PPARα (PPARα; compared with GW7647): weak agonist
Structure (SMILES): O=C(O)[C@H]1[C@@H](c2ccccc2)[C@@H](C(=O)Oc2cccc3ccccc23)[C@@H]1c1ccccc1 (single isomer, unassigned) [Compound 26, α-2,4-diphenyl-cyclobutane-1,3-dicarboxylic Acid mono-(1-naphthol) Ester]
amplitude of EPSCs ([1]; bath application 10 μM, n=8): 107±6.7 % of baseline
antinociceptive and anti-edematous effects after rimonabant and SR144528 pretreatment (male C57Bl6 mice [2]; 20 mg/kg i.p., antagonists 3 mg/kg i.p. 15 min before): completely reversed; also recorded: blocked
carrageenan-induced paw edema, 24 hrs after inhibitor administration (male C57Bl6 mice [2]; 20 mg/kg, i.p. (FIG. 16A)): reduced
carrageenan-induced thermal hyperalgesia, 24 hrs after inhibitor administration (male C57Bl6 mice [2]; 20 mg/kg, i.p. (FIG. 16A)): reduced
carrageenan-induced thermal hyperalgesia (male C57Bl6 mice [2]; 20 mg/kg, i.p., 45 min prior to carrageenan (FIG. 10B)): significantly reduced; also recorded: alleviates
carrageenan-induced paw edema (male C57Bl6 mice [2]; 20 mg/kg, i.p., paw diameter at 4 hr (FIG. 10C)): significantly reduced; also recorded: reduces
formalin test first phase (0-5 min) nocifensive behavior (male C57Bl6 mice [3]; 20 mg/kg, i.p. (FIG. 10A)): significantly reduced; also recorded: reduces
formalin test second phase (15-45 min) nocifensive behavior (male C57Bl6 mice [3]; 20 mg/kg, i.p. (FIG. 10A)): only during the first phase
first phase of formalin-induced nociception (male C57Bl6 mice [3]; FIG. 16B): reduce
second phase of formalin-induced nociception (male C57Bl6 mice [3]; FIG. 16B): reduce
antinociceptive effects with SR141716 (3 mg/kg) and GW6471 (4 mg/kg) (mice; FIG. 16E): reversed
acetic acid-induced writhing (mice; FIGS. 16C-D): reduces
